Test results reported in a melting point compilation (Tetko et al.; mined from patent text by program, amines drawn as free bases though some values may be those of a salt).

Row | SMILES | melting point
1 | COC(=O)c1ccc(C23CC4CC(CC(C4)C2)C3)c(O)c1 | 244 to 246 °C
2 | O=C(NC1CCN(C2CCCCC2)C1)c1cc([N+](=O)[O-])cc([N+](=O)[O-])c1 (stereo not given) | 159 to 161 °C
3 | O=C(Nc1ccc(C2CC(F)(F)C2(F)F)cc1)Nc1nonc1-c1ccccc1 (stereo not given) | 206 °C
4 | C1CCC(CC2CNCCNCCNCCNCCN2)CC1 (stereo not given) | 87 to 89 °C
5 | CC(C)(CO)NC(=O)Cc1ccc2c(c1)C(=O)c1sccc1CO2 | 162 to 163 °C
6 | CCN(CCNS(C)(=O)=O)c1ccc(NC(C)=O)c(C)c1 | 104 to 105 °C
7 | COc1ccc2c(c1)CCC1C2CCC2(C)C(NCCCCCCCCCCN)CCC12 (stereo not given) | 55.5 to 57.5 °C
8 | COC1C(O)CCC(O)(CSC)C1C1(C)OC1CC=C(C)C (stereo not given) | 52 to 53 °C
9 | CC(C)(C)c1cccc(Br)c1Oc1ccc(O)nn1 | 255 to 257 °C
10 | CC(C)[C@H](O)C(=O)NCCc1ccccc1 | 100 °C
11 | CCOC(=O)c1cc(CC)sc1Nc1ccc(C(F)(F)F)cc1[N+](=O)[O-] | 102 °C
12 | CNC(=O)C1CC(C)CCC1C(C)C (stereo not given) | 95 to 97 °C
13 | COC1=C(OC)C(=O)C(CCCCCCCCCCCCCCCCCCCCCC(=O)O)=C(C)C1=O | 86 to 87 °C
14 | NC(=O)c1c(F)ccc(OCc2nc3ccc(OC(F)(F)F)cc3s2)c1F | 174 to 175 °C
15 | CCOC(=O)c1ccc(Cl)nc1OCC | 33 to 35 °C
16 | CCOC(=O)CCn1cnc2c1N=CNC2N (stereo not given) | 166 to 167 °C
17 | CCc1cccc(C)c1CNc1nc(C(=O)O)cc2c1nc(C)n2C | 233 to 236 °C
18 | CN(SCl)C(=O)Nc1ccc(Cl)c(Cl)c1 | 142 to 145 °C
19 | CN(C)CCCSC1=C(C#N)C(c2ccccn2)(c2ccccn2)C(=O)N1 | 184 to 185 °C
20 | CNC(=O)N1N=C(c2ccc([N+](=O)[O-])cc2)c2ccc(Cl)cc2CC1C (stereo not given) | 224 to 226 °C
21 | COc1ccc(F)c(C)c1NC(=O)OC(C)(C)C | 81 to 82 °C

Row | SMILES | melting point
22 | CC(=O)Oc1cccc(C2(N(C)C)CCC(=O)CC2)c1 | 51 to 53 °C
23 | CCCCC1(N(C)C)CCC(c2[nH]c3ccccc3c2CC2CCCCC2)CC1 (stereo not given) | 155 to 165 °C
24 | COc1ccc2c(c1Cl)S(=O)(=O)c1ccccc1N2C | 244 °C
25 | CCc1ccc(Cc2cn(C3OC(COC(=O)c4ccccc4)C(O)C(OC(=O)c4ccccc4)C3OC(=O)c3ccccc3)c3cccc(Cl)c23)cc1 (stereo not given) | 192 to 193 °C
26 | COc1ccc(CC2NCCOc3c2cnn(C)c3=O)cc1 (stereo not given) | 92 to 93 °C
27 | CCOC(=O)c1cn(C2CC2)c2c(CO)c(N3CCN(C)CC3)c(F)cc2c1=O | 216 to 218 °C
28 | CCCCCC1C=CC(c2ccc(OC)cc2)=CC1 (stereo not given) | 55 °C
29 | O=C(O)CC1(CC(O)=NO)CCCCCC1 | 90 to 100 °C
30 | CCn1ncc2c3onc(-c4ccccc4)c3cnc21 | 151 to 153 °C
31 | CSc1cccc(Nc2nc(OCC3CCCCC3)c3[nH]cnc3n2)c1 | 190 to 192 °C
32 | CCN(CC)CCNC(=O)c1cccc2c(=O)c3cccc(I)c3[nH]c12 | 148 to 150 °C
33 | CC(C)NC(=N)NC(=N)NOCCCOc1ccc(OC(F)(F)F)cc1 | 154 to 155 °C
34 | COCOc1ccc2sc(C=O)cc2c1 | 81 to 82 °C
35 | CCOC(=O)c1cnc(-c2ccc(C(F)(F)F)cc2)s1 | 98 to 110 °C
36 | CCCCCCCCc1ccc(CCC(CO)(CO)[N+](=O)[O-])cc1 | 80 to 82 °C
37 | CCOC(=O)/C=C(\c1cccc(C(F)(F)F)c1)c1ccc(OC)c(OC)c1 | 72 to 74 °C
38 | Nc1ccc(CCC(=O)Nc2ccc(Cl)cc2Cl)cc1[N+](=O)[O-] | 164 to 165 °C
39 | Cc1cc2c(cc1-c1ccc(C#CC(=O)O)s1)C(C)(C)CCC2(C)C | 138 to 140 °C
40 | O=C1CNc2cc([N+](=O)[O-])c(F)cc2O1 | 196 to 202 °C
41 | C[C@]1(CN2CCN(C(=O)COc3ccc(Cl)cc3)CC2)Cn2cc([N+](=O)[O-])nc2O1 | 179 to 180 °C
42 | COc1cc(C)c(C(=O)c2c(OC)ncc(Br)c2Cl)c(OC)c1OC | 84 to 87 °C

Row | SMILES | melting point
43 | O=C(Nc1ccc(F)c([N+](=O)[O-])c1)c1ccc(Cl)c(Cl)c1 | 202 to 204 °C
44 | CCOC(=O)c1oc2cccc(CCO)c2c1C | 88 to 90 °C
45 | CCCCCC(=O)C=[PH2]c1ccccc1 | 73 to 74 °C
46 | Cc1oc(-c2ccco2)nc1/C=C/c1ccc(C=CC=C2OC(=O)NC2=O)cc1 | 290 to 291 °C
47 | CN1CCCC1CC(O)c1cccc(O)c1 (stereo not given) | 147 to 150 °C
48 | CC1(C)OC(=O)C(C(=O)C2CC2)C(=O)O1 | 44 to 46 °C
49 | OCCOC1=Nc2ccc(Cl)cc2C(c2ccccc2)=NC1 | 142 to 144 °C
50 | CCCCc1ccc(NC(=O)c2ccc(N)cc2)cc1 | 138 °C
51 | N#Cc1cccc2c1CC(=O)c1ccccc1S2 | 165 to 167 °C
52 | CCOC(=O)CC(NC(=O)CNC(=O)c1csc(N=C2NCCN2)n1)c1cccnc1 (racemic) | 198 to 199 °C
53 | O=C(O)CN1C(=O)C(=Cc2csc(Nc3ccccc3)n2)SC1=S | 242 to 246 °C
54 | FC(F)Oc1cnnc(-c2cccc(C(F)(F)F)c2)c1 | 70 to 72 °C
55 | O=c1[nH]ncc2ccc(OCC3CO3)cc12 (stereo not given) | 164 to 166 °C
56 | CC(=O)c1nc(-c2ccc(O)cc2)n(C)c1C | 198 to 202 °C
57 | NS(=O)(=O)c1cc2cnc(CO)cc2o1 | 222 to 223 °C
58 | C#CC(C)(C)NC(=O)c1cnc(N2CCC(N3C(=O)OCc4ccccc43)CC2)c(Cl)c1 | 135 to 138 °C
59 | Nc1cc(Oc2cc(N)cc(C(F)(F)F)c2)cc(C(F)(F)F)c1 | 223 to 224 °C
60 | CC(C)NC(=O)c1c(NC(=O)c2cc(C(F)(F)F)nn2-c2ncccc2Cl)c(Br)cc2cn[nH]c12 | 189 to 190 °C
61 | CCCCCCc1cc2c(cc1O)C(=O)CCC2 | 125 °C
62 | CCOC(=O)C(CCCCCCCCCCCCC(C(=O)O)C1CC1)C1CC1 (stereo not given) | 36.9 to 38.2 °C

Results, then the molecule that gave them:

Row | melting point | SMILES
63 | 110 to 112 °C | CC(C)c1nn(-c2ccccc2)c(-c2ccc(F)cc2)c1C=O
64 | 105 to 106 °C | COC(=O)c1cccc(-c2nc(-c3cccc(C(F)(F)F)c3)cs2)c1
65 | 233 °C | O=S(CCCCF)CCCCCOc1ccc(C2=C(c3ccccc3)CCCc3cc(O)ccc32)cc1 (stereo not given)
66 | 160 °C | CCOC(=O)Cc1nn(CC(=O)Nc2cc(C(F)(F)F)ccc2Br)c(=O)c2ccccc12
67 | 148 to 149 °C | O=C(c1cccc(Cl)c1)C1C(=O)c2ccccc2C1=O
68 | 110 to 112 °C | O=C1c2ccccc2C(=O)N1OC1CCCCCC1
69 | 140 °C | COc1ccc(CNC(=O)c2cc([N+](=O)[O-])ccc2NC2CC=CCC2)cc1F (stereo not given)
70 | 267 to 268 °C | CC(=O)Nc1ccc(N2C(=O)CCCC2c2ccc(Cl)c(Cl)c2)cc1 (stereo not given)
71 | 238 °C | Cc1c(C(=O)O)cn(-c2ccnc3ccccc23)c1C
72 | > 300 °C | COc1cc2c(cc1-c1ccccc1)CCCc1c-2nc2ccc(F)cc2c1C(=O)O
73 | 108 to 110 °C | CON=C(C(=O)OC)c1ccccc1COc1ccc2c(c1)OCC2=NOC
74 | 296 to 298 °C | O=c1c2c(c3cccnc3n1-c1ccccc1)OCC(O)C2 (stereo not given)
75 | 144 to 146 °C | CNC(=S)N1CCSC1c1ccccc1OCCN1CCN(c2ccccc2)CC1 (single isomer, unassigned; (-))
76 | 113 to 115 °C | COc1cc(-c2ccccc2)c([N+](=O)[O-])cc1OC
77 | 288 to 290 °C | O=C(O)c1ccc(C(=O)O)c2c(Br)cccc12
78 | 161 to 164 °C | Cn1c(COc2ccc(CC3SC(=O)NC3=O)cc2)nc2ccc(Oc3ccc(CCNC(=O)Nc4ccc(F)cc4F)cc3)cc21 (stereo not given)
79 | 271 to 272 °C | O=C(O)c1cccc(-c2ccc(-c3ccc(C(F)(F)F)cc3)o2)c1
80 | 100 to 103 °C | O=C(OCc1ccccc1)c1ccc(OC(=O)c2ccccc2C(=O)Oc2ccc(C(=O)OCc3ccccc3)cc2)cc1
81 | 145 to 147 °C | COC(=O)c1ccc(S(C)(=O)=O)c(-c2ccon2)c1Cl

Row | melting point | SMILES
82 | 159 to 160 °C | O=C(OCN1C(=O)c2ccccc2C1=O)c1ccccc1[N+](=O)[O-]
83 | 118 to 119 °C | COC(=O)c1cc2c(OC[C@@H](O)CN3CCC(c4ccc5ccccc5c4)CC3)cccc2o1
84 | 190 to 192 °C | COC(=O)C1=C(C)Nc2ccccc2NC1c1ccccc1C(F)(F)F (stereo not given)
85 | 154 to 156 °C | CCCc1c(OC(C(=O)O)c2ccc(OC)cc2)ccc(C(C)=O)c1O (stereo not given)
86 | 231 °C | CC(C)(C)OC(=O)N[C@@H](Cc1ccc(NC(=O)c2csc(NC(=O)NCc3ccccc3)n2)cc1)C(=O)O
87 | 117 to 118 °C | CCCCC(=O)NC1(c2ccc(C(C)C)cc2OC(=O)CCCC)C(=O)c2ccccc2C1=O
88 | 82.5 to 85.5 °C | COc1ccccc1C(=O)N(c1ccccc1)c1ccc(OCCN(C)C)cc1
89 | 105 to 106 °C | CC(C)(C)c1ccc(C(=O)CCCN2CCC(C(=O)c3nc4ccccc4n3Cc3ccc(F)cc3)CC2)cc1
90 | 115 to 118 °C | CCOC(=O)n1c2ccccc2c(=O)n1C(c1ccccc1)c1ccccc1
91 | 112 to 115 °C | CCOC(=O)c1cccc2c1Nc1ccc(C(=O)c3ccccc3)cc1N2C(=O)OC
92 | 234 to 235 °C | Cc1cc(-c2nc3cccnn3c2-c2ccnc(NC(=O)Nc3ccsc3)c2)ccc1F
93 | 83 to 85 °C | COc1ccc(CN(C(=O)C2CCCc3ccc(OC)cc32)c2ccc(C(C)C)cc2)cc1 (stereo not given)
94 | 94 to 96 °C | COc1ccc(C(O)Cc2ccccn2)cc1OC1CCCC1 (stereo not given)
95 | 230 to 237 °C | Cc1sc2cc3ccccc3c(-c3ccc(OS(=O)(=O)c4ccc(C(=O)O)c(O)c4)c(C4CCCC4)c3)c2c1C
96 | > 300 °C | O=C1c2ccccc2-c2c1[nH]c(=O)c1ccccc21
97 | 236 to 238 °C | CN1C(=O)C2=C(c3ccccc3)N(C)C(=O)C2=C1c1ccccc1
98 | 145 to 147 °C | Cc1ccc(C=C(C#N)S(=O)(=O)c2ccccc2)cc1
99 | 172 to 173 °C | CN(C)C(=O)Cc1ccccc1Nc1ccnc2cc(C(F)(F)F)ccc12
100 | 150 to 152 °C | CC(=O)C=Cc1cn(CC(=O)N(C)CCc2ccccc2)c2ccc(OCc3ccccc3)cc12
